Test results from ChEMBL document CHEMBL4665844, “HDAC-Bax Multiple Ligands Enhance Bax-Dependent Apoptosis in HeLa Cells” (J Med Chem, 2020).
Blank lines part the entries; values can stand above or below the compound they belong to. Active and inactive are the calls of the source. The calls are words filed in the database; no cut-off is given here.

What was measured:
Apoptosis regulator BAX [1] = biological target: T1, Apoptosis regulator BAX (Homo sapiens, UniProt Q07812); assay: Binding affinity to recombinant human full length His-tagged BAX expressed in Escherichia coli BL21 (DE3) cells preincubated for 30 min followed by FITC-BIM addition and measured after 20 mins by fluorescence polarization assay
T1 sequence (Q07812 whole entry): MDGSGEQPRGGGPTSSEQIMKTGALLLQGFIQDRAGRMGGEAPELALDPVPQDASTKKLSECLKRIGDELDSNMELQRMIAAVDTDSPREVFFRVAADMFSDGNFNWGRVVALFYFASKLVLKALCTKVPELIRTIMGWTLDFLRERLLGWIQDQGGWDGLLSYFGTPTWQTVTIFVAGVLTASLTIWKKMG

Histone deacetylase = assay: Inhibition of HDAC in human HeLa nuclear extract using Boc-Lys(acetyl)-AMC or Boc-Lys (triflouroacetyl)-AMC as substrate preincubated for 5 mins followed by substrate addition and measured after 30 mins by fluorescence assay; format: subcellular, Nucleus
HeLa [2] = assay: induction of apoptosis in siRNA-induced BAX knock down human HeLa cells at 0.3 to 3 uM after 48 hr by annexin V FITC and propidium iodide staining based flow cytometric analysis; format: functional, cell-based; conditions: dose microM 0.3-3, time 48.0 hrs
HeLa [3] = assay: Induction of mitochondrial membrane potential loss in human HeLa cells at 1 to 3 uM after 24 hrs by TMRE staining based fluorescence assay; format: functional, cell-based; conditions: dose microM 1-3, time 24.0 hrs
HeLa [4] = assay: Up regulation of BAX protein in human HeLa cells at 0.3 to 3 uM after 6 to 12 hrs by Western blot analysis; format: functional, cell-based; conditions: dose microM 0.3-3, time hrs 6-12
HeLa [5] = assay: Induction of apoptosis in human HeLA cells at 3 uM after 48 hr by annexin V FITC and propidium iodide staining based flow cytometric analysis; format: functional
Apoptosis regulator BAX [6] = biological target: T1, Apoptosis regulator BAX; assay: Activation of BAX in human HeLa cells assessed as confirmation activation at Bax6A7 after 6 to 12 hrs by immunoprecipitation assay; format: cell-based; conditions: filed as activator, dose microM 0.3-3, time hrs 6-12
Histone deacetylase 1 = Histone deacetylase 1 (Homo sapiens, UniProt Q13547); assay: Inhibition of HDAC1 (unknown origin) in using Boc-Lys(acetyl)-AMC or Boc-Lys (triflouroacetyl)-AMC as substrate preincubated for 5 mins followed by substrate addition and measured after 30 mins by fluorescence assay
Sequence of Histone deacetylase 1 (Q13547 whole entry): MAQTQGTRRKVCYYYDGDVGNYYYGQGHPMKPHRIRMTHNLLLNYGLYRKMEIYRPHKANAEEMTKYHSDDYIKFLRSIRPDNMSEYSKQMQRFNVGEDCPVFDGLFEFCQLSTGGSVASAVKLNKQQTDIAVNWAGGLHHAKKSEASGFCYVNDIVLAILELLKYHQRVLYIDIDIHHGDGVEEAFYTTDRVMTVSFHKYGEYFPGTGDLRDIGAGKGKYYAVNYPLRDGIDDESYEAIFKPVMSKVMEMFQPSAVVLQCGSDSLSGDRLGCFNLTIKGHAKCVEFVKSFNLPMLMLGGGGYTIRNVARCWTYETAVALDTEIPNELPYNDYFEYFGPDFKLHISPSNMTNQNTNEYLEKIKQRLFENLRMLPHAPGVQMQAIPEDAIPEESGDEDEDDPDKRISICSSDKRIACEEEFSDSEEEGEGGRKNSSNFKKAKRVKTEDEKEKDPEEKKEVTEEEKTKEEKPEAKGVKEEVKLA

HeLa [7] = assay: Induction of apoptosis in human HeLA cells at 0.3 to 1 uM after 48 hr by annexin V FITC and propidium iodide staining based flow cytometric analysis; format: functional, cell-based; conditions: dose microM 0.3-1, time 48.0 hrs
HeLa [8] = assay: induction of apoptosis in siRNA-induced BAX knock down human HeLa cells at 3 uM after 48 hr by annexin V FITC and propidium iodide staining based flow cytometric analysis; format: functional
HeLa [9] = assay: Antiproliferative activity against human HeLa cells assessed as reduction in cell viability after 48 hrs by MTT assay; format: functional, cell-based
HeLa [10] = assay: Induction of apoptosis in human HeLa cells assessed as cellular shrinkage at 1 uM after 6 to 36 hrs by fluorescence microscopic method; format: functional, cell-based; conditions: time hrs 6-36
HeLa [11] = assay: Potency index, ratio of IC50 for SAHA to test compound IC50 for antiproliferation activity against human HeLa cells; format: functional
HeLa [12] = assay: Induction of apoptosis in human HeLa cells assessed as formation of apoptotic bodies at 1 uM after 6 to 36 hrs by fluorescence microscopic method; format: functional, cell-based; conditions: time hrs 6-36
Bcl-2-like protein 1 = Bcl-2-like protein 1 (Homo sapiens, UniProt Q07817); assay: Binding affinity to full length His-tagged Bcl-xl (unknown origin) preincubated for 30 min followed by 5-FAM Bid-BH3 addition and measured after 20 mins by fluorescence polarization assay
Sequence of Bcl-2-like protein 1 (Q07817 whole entry): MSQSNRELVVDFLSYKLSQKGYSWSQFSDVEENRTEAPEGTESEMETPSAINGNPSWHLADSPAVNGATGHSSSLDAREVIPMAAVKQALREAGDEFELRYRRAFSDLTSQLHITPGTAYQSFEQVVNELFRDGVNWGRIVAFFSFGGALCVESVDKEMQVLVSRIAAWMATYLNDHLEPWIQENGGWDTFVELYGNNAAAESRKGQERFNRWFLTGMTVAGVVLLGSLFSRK

HeLa [13] = assay: Induction of apoptosis in human HeLa cells assessed as membrane blebbing at 1 uM after 6 to 36 hrs by fluorescence microscopic method; format: functional, cell-based; conditions: time hrs 6-36
[14] = biological target: Induced myeloid leukemia cell differentiation protein Mcl-1 (Homo sapiens, UniProt Q07820); assay: Binding affinity to full length His-tagged Mcl1 (unknown origin) preincubated for 30 min followed by 5-FAM Bid-BH3 addition and measured after 20 mins by fluorescence polarization assay
Sequence of Induced myeloid leukemia cell differentiation protein Mcl-1 (Q07820 whole entry): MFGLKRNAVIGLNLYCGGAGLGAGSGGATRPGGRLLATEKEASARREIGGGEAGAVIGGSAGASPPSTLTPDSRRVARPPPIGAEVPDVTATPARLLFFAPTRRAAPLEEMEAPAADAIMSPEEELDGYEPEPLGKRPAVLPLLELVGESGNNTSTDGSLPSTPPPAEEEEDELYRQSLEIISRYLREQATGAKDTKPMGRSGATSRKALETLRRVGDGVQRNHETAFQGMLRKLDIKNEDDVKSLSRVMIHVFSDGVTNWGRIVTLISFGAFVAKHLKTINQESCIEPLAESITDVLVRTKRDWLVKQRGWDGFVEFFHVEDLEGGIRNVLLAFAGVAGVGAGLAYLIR

HeLa [15] = assay: Antiproliferative activity against siRNA-induced BAX knock down human HeLa cells after 48 hrs by MTT assay; format: functional, cell-based
Histone deacetylase 2 = Histone deacetylase 2 (Homo sapiens, UniProt Q92769); assay: Inhibition of HDAC2 (unknown origin) in using Boc-Lys(acetyl)-AMC or Boc-Lys (triflouroacetyl)-AMC as substrate preincubated for 5 mins followed by substrate addition and measured after 30 mins by fluorescence assay
Sequence of Histone deacetylase 2 (Q92769 whole entry): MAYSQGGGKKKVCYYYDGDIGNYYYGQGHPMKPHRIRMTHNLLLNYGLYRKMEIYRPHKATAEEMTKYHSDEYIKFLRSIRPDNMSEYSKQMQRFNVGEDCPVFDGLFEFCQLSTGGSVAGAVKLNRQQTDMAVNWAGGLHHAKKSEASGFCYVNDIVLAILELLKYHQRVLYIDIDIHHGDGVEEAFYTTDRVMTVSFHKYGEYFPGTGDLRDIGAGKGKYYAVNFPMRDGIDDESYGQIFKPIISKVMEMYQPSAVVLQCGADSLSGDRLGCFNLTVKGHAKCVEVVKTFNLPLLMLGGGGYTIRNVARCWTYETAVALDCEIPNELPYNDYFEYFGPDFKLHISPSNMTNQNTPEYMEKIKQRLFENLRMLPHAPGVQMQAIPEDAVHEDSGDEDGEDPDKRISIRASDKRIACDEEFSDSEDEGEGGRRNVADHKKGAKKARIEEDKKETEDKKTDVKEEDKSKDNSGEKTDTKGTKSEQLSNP

HeLa [16] = assay: Potency index, ratio of IC50 for BSTA1 to test compound IC50 for antiproliferation activity against human HeLa cells; format: functional
[17] = biological target: Apoptosis regulator Bcl-2 (Homo sapiens, UniProt P10415); assay: Binding affinity to full length His-tagged Bcl2 (unknown origin) preincubated for 30 min followed by 5-FAM Bid-BH3 addition and measured after 20 mins by fluorescence polarization assay
Sequence of Apoptosis regulator Bcl-2 (P10415 whole entry): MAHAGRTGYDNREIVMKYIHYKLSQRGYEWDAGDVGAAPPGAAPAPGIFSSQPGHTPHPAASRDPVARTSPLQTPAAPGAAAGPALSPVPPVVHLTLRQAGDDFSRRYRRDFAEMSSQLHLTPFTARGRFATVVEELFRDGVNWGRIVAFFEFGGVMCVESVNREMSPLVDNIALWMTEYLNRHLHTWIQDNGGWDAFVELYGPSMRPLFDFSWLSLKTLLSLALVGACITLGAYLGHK

L02 = assay: Cytotoxicity against human L02 cells assessed as reduction in cell viability after 48 hrs by MTT assay; format: ADME, cell-based; conditions: L02, 48 h
HeLa [18] = assay: Induction of mitochondrial membrane potential loss in human HeLa cells after 24 hrs by TMRE staining based fluorescence assay; format: functional, cell-based; conditions: dose microM 1-3, time 24.0 hrs
Histone deacetylase 8 = biological target: T2, Histone deacetylase 8 (Homo sapiens, UniProt Q9BY41); assay: Inhibition of HDAC8 (unknown origin) in using Boc-Lys(acetyl)-AMC or Boc-Lys (triflouroacetyl)-AMC as substrate preincubated for 5 mins followed by substrate addition and measured after 30 mins by fluorescence assay
T2 sequence (Q9BY41 whole entry): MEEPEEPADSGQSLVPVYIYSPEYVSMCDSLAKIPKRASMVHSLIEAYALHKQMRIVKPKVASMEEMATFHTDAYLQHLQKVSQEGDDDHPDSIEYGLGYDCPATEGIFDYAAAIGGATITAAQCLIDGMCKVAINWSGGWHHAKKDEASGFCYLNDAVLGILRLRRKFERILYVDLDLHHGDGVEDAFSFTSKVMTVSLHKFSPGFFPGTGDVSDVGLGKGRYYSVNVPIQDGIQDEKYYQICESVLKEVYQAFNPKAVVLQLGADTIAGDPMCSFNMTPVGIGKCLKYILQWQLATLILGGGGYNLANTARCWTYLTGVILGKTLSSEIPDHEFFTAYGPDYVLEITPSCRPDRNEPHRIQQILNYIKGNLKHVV

HeLa [19] = assay: Induction of apoptosis in human HeLA cells at 1 uM after 48 hr by laser confocal microscopic based TUNEL assay; format: functional, cell-based
HeLa [20] = assay: Synergistic antiproliferative activity against human HeLa cells assessed as assessed as reduction in cell viability after 48 hrs in presence of SAHA by MTT assay; format: functional, cell-based

Structure (SMILES): O=C(CCCCCCNC(=O)c1ccc(-c2csc(N3N=C(c4ccccc4)/C(=N/Nc4nccs4)C3=O)n2)cc1)NO
EC50 (Apoptosis regulator BAX [1]): 1140 nM
IC50 (Histone deacetylase): 98.8 nM

Structure (SMILES): O=C(/C=C/c1ccc(CNC(=O)c2ccc(-c3csc(N4N=C(c5ccccc5)/C(=N/Nc5nccs5)C4=O)n3)cc2)cc1)NO
EC50 (Apoptosis regulator BAX [1]): 2220 nM
IC50 (Histone deacetylase): 1341.5 nM

Structure (SMILES): O=C(CCCCCCC(=O)Nc1ccccc1)NO [VORINOSTAT]
Activity (HeLa [2]): inactive
Activity (HeLa [3]): Active
EC50 (Apoptosis regulator BAX [1]): > 10000 nM
Activity (HeLa [4]): Active
Activity (HeLa [5]): 47.1%

Structure (SMILES): O=C(CCCCOc1ccc(-c2csc(N3N=C(c4ccccc4)/C(=N/Nc4nccs4)C3=O)n2)cc1)NO
EC50 (Apoptosis regulator BAX [1]): 967 nM
IC50 (Histone deacetylase): 118.5 nM

Structure (SMILES): O=C1/C(=N\Nc2nccs2)C(c2ccccc2)=NN1c1nc(-c2ccccc2)cs1
Activity (HeLa [2]): inactive
Activity (HeLa [3]): Active
IC50 (HeLa [9]): 11500 nM
EC50 (Bcl-2-like protein 1): > 10000 nM
EC50 [14]: > 10000 nM
IC50 (Histone deacetylase): > 10000 nM
IC50 (HeLa [15]): > 20000 nM
IC50 (HeLa [20]): 810 nM
EC50 [17]: > 10000 nM
IC50 (L02): 54200 nM
Activity (HeLa [5]): 19.2%

Structure (SMILES): O=C(/C=C/c1ccc(COc2ccc(-c3csc(N4N=C(c5ccccc5)/C(=N/Nc5nccs5)C4=O)n3)cc2)cc1)NO
EC50 (Apoptosis regulator BAX [1]): 992 nM
IC50 (Histone deacetylase): 243.7 nM

Continued by falling EC50 (Apoptosis regulator BAX [1]), values first:

EC50 (Apoptosis regulator BAX [1]): 925 nM
IC50 (Histone deacetylase): 75.8 nM
Structure (SMILES): O=C(CCCCCOc1ccc(-c2csc(N3N=C(c4ccccc4)/C(=N/Nc4nccs4)C3=O)n2)cc1)NO

EC50 (Apoptosis regulator BAX [1]): 874 nM
IC50 (Histone deacetylase): 577.4 nM
Structure (SMILES): O=C(NO)c1ccc(-c2csc(N3N=C(c4ccccc4)/C(=N/Nc4nccs4)C3=O)n2)cc1

EC50 (Apoptosis regulator BAX [1]): 856 nM
IC50 (Histone deacetylase): 40.8 nM
Structure (SMILES): O=C(CCCCCCOc1ccc(-c2csc(N3N=C(c4ccccc4)/C(=N/Nc4nccs4)C3=O)n2)cc1)NO

EC50 (Apoptosis regulator BAX [1]): 809 nM
IC50 (Histone deacetylase): 87.5 nM
Structure (SMILES): O=C(CCCCCNC(=O)c1ccc(-c2csc(N3N=C(c4ccccc4)/C(=N/Nc4nccs4)C3=O)n2)cc1)NO

EC50 (Apoptosis regulator BAX [1]): 725 nM
IC50 (Histone deacetylase): 674.8 nM
Structure (SMILES): O=C(CCCOc1ccc(-c2csc(N3N=C(c4ccccc4)/C(=N/Nc4nccs4)C3=O)n2)cc1)NO

EC50 (Apoptosis regulator BAX [1]): 719 nM
IC50 (Histone deacetylase): 207.4 nM
Structure (SMILES): O=C(CCCCNC(=O)c1ccc(-c2csc(N3N=C(c4ccccc4)/C(=N/Nc4nccs4)C3=O)n2)cc1)NO

EC50 (Apoptosis regulator BAX [1]): 704 nM
IC50 (Histone deacetylase): > 10000 nM
Structure (SMILES): O=C(O)c1ccc(-c2csc(N3N=C(c4ccccc4)/C(=N/Nc4nccs4)C3=O)n2)cc1

EC50 (Apoptosis regulator BAX [1]): 538 nM
IC50 (Histone deacetylase): 85 nM
Structure (SMILES): O=C(NO)c1ccc(COc2ccc(-c3csc(N4N=C(c5ccccc5)/C(=N/Nc5nccs5)C4=O)n3)cc2)cc1

EC50 (Apoptosis regulator BAX [1]): 532 nM
IC50 (Histone deacetylase): 135.2 nM
Structure (SMILES): O=C(CCCCCCCOc1ccc(-c2csc(N3N=C(c4ccccc4)/C(=N/Nc4nccs4)C3=O)n2)cc1)NO

Activity (Apoptosis regulator BAX [6]): Dose-dependent effect
IC50 (Histone deacetylase 1): 66 nM
EC50 (Apoptosis regulator BAX [1]): 393 nM
IC50 (HeLa [9]): 860 nM
EC50 (Bcl-2-like protein 1): > 10000 nM
EC50 [14]: > 10000 nM
IC50 (Histone deacetylase): 62.8 nM
IC50 (HeLa [15]): 7550 nM
IC50 (Histone deacetylase 2): 198 nM
EC50 [17]: > 10000 nM
IC50 (Histone deacetylase 8): 1090 nM
Structure (SMILES): O=C(NO)c1ccc(CNC(=O)c2ccc(-c3csc(N4N=C(c5ccccc5)/C(=N/Nc5nccs5)C4=O)n3)cc2)cc1
Activity (HeLa [7]): Active
Activity (HeLa [8]): 14.8%
Activity (HeLa [10]): Active
Ratio IC50 (HeLa [11]): 15
Activity (HeLa [12]): Active
Activity (HeLa [13]): Active
Ratio IC50 (HeLa [16]): 3
Activity (HeLa [4]): Active
IC50 (L02): 65200 nM
Activity (HeLa [18]): Dose-dependent effect
Activity (HeLa [5]): 60%
Activity (HeLa [19]): Active
